Laboratory results as given in the NIST ThermoML archive (doi:10.1016/j.fluid.2017.06.019).

Conditions: Coaxial cylinder method

CCC [propane]
Conditions	thermal conductivity [W/m/K]
365.72 K, 3978 kPa, Liquid	0.08613
365.72 K, 3979 kPa, Liquid	0.08495
365.72 K, 3980 kPa, Liquid	0.08381
365.72 K, 3985 kPa, Liquid	0.07882
365.72 K, 3990 kPa, Liquid	0.07478
365.72 K, 3995 kPa, Liquid	0.07164
365.72 K, 4000 kPa, Liquid	0.06921
365.72 K, 4010 kPa, Liquid	0.066
365.72 K, 4014 kPa, Liquid	0.06521
365.72 K, 4020 kPa, Liquid	0.06438
365.72 K, 4025 kPa, Liquid	0.06418
365.72 K, 4030 kPa, Liquid	0.06394
365.72 K, 4035 kPa, Liquid	0.06394
365.72 K, 4040 kPa, Liquid	0.06389
365.72 K, 4045 kPa, Liquid	0.06389
365.72 K, 4050 kPa, Liquid	0.06389
365.72 K, 4055 kPa, Liquid	0.06385
365.72 K, 4060 kPa, Liquid	0.06385
365.72 K, 4080 kPa, Liquid	0.06377
365.72 K, 4100 kPa, Liquid	0.06375
365.72 K, 4120 kPa, Liquid	0.06375
365.72 K, 4140 kPa, Liquid	0.06377
365.72 K, 4160 kPa, Liquid	0.06377
365.72 K, 4180 kPa, Liquid	0.06377
365.72 K, 4200 kPa, Liquid	0.06381
365.72 K, 4250 kPa, Liquid	0.06392
365.72 K, 4275 kPa, Liquid	0.06396
365.72 K, 4350 kPa, Liquid	0.06412
365.72 K, 4400 kPa, Liquid	0.06428
365.72 K, 4450 kPa, Liquid	0.06442
365.72 K, 4500 kPa, Liquid	0.06459
365.72 K, 4560 kPa, Liquid	0.06484
365.72 K, 4580 kPa, Liquid	0.0649
365.72 K, 4670 kPa, Liquid	0.06519
365.72 K, 4690 kPa, Liquid	0.06519
366.45 K, 3595 kPa, Gas	0.03694
366.45 K, 3610 kPa, Gas	0.0371
366.45 K, 3880 kPa, Gas	0.04193
366.45 K, 3882 kPa, Gas	0.04198
366.45 K, 3908 kPa, Gas	0.04282
366.45 K, 3915 kPa, Gas	0.04316
366.45 K, 3920 kPa, Gas	0.04339
366.45 K, 3925 kPa, Gas	0.04359
366.45 K, 3930 kPa, Gas	0.04383
366.45 K, 3935 kPa, Gas	0.04406
366.45 K, 3937 kPa, Gas	0.04421
366.45 K, 3949 kPa, Gas	0.04486
366.45 K, 3950 kPa, Gas	0.04487
366.45 K, 3951 kPa, Gas	0.04497
366.45 K, 3952 kPa, Gas	0.04502
366.45 K, 3953 kPa, Gas	0.04507
366.45 K, 3954 kPa, Gas	0.04513
366.45 K, 3955 kPa, Gas	0.04847
366.45 K, 3956 kPa, Gas	0.0498
366.45 K, 3957 kPa, Gas	0.0512
366.45 K, 3958 kPa, Gas	0.05294
366.45 K, 3959 kPa, Gas	0.05452
366.45 K, 3960 kPa, Gas	0.05651
366.45 K, 3961 kPa, Gas	0.05848
366.45 K, 3962 kPa, Gas	0.06058
366.45 K, 3963 kPa, Gas	0.06307
366.45 K, 3964 kPa, Gas	0.06573
366.45 K, 3965 kPa, Gas	0.06816
366.45 K, 3966 kPa, Gas	0.07114
366.45 K, 3967 kPa, Gas	0.07411
366.45 K, 3968 kPa, Gas	0.07748
366.45 K, 3969 kPa, Gas	0.08195
366.45 K, 3970 kPa, Gas	0.08706
366.45 K, 3971 kPa, Gas	0.09339
366.45 K, 3972 kPa, Gas	0.09783
366.45 K, 3973 kPa, Gas	0.1017
366.45 K, 3974 kPa, Gas	0.108
366.45 K, 3975 kPa, Gas	0.114
366.45 K, 3976 kPa, Gas	0.1185
366.45 K, 3977 kPa, Gas	0.1239
366.45 K, 3978 kPa, Gas	0.1288
366.45 K, 3979 kPa, Gas	0.1341
366.45 K, 3980 kPa, Gas	0.1393
366.45 K, 3981 kPa, Gas	0.1449
366.45 K, 3982 kPa, Gas	0.1502
366.45 K, 3983 kPa, Gas	0.1559
366.45 K, 3984 kPa, Gas	0.1614
366.45 K, 3985 kPa, Gas	0.1661
366.45 K, 3986 kPa, Gas	0.1732
366.45 K, 3987 kPa, Gas	0.1794
366.45 K, 3988 kPa, Gas	0.1853
366.45 K, 3989 kPa, Gas	0.1916
366.45 K, 3990 kPa, Gas	0.1977
366.45 K, 3991 kPa, Gas	0.2045
366.45 K, 3992 kPa, Gas	0.2108
366.45 K, 3993 kPa, Gas	0.2174
366.45 K, 3994 kPa, Gas	0.224
366.45 K, 3995 kPa, Gas	0.2309
366.45 K, 3996 kPa, Gas	0.2389
366.45 K, 3997 kPa, Liquid	0.2535
366.45 K, 3998 kPa, Liquid	0.2389
366.45 K, 3999 kPa, Liquid	0.2261
366.45 K, 4000 kPa, Liquid	0.2153
366.45 K, 4001 kPa, Liquid	0.2051
366.45 K, 4002 kPa, Liquid	0.196
366.45 K, 4003 kPa, Liquid	0.1879
366.45 K, 4004 kPa, Liquid	0.1801
366.45 K, 4005 kPa, Liquid	0.1734
366.45 K, 4006 kPa, Liquid	0.1669
366.45 K, 4007 kPa, Liquid	0.1612
366.45 K, 4008 kPa, Liquid	0.1563
366.45 K, 4009 kPa, Liquid	0.1513
366.45 K, 4010 kPa, Liquid	0.1467
366.45 K, 4011 kPa, Liquid	0.1425
366.45 K, 4012 kPa, Liquid	0.1387
366.45 K, 4013 kPa, Liquid	0.1345
366.45 K, 4014 kPa, Liquid	0.132
366.45 K, 4015 kPa, Liquid	0.1298
366.45 K, 4016 kPa, Liquid	0.127
366.45 K, 4017 kPa, Liquid	0.1241
366.45 K, 4018 kPa, Liquid	0.1223
366.45 K, 4019 kPa, Liquid	0.1202
366.45 K, 4020 kPa, Liquid	0.1175
366.45 K, 4021 kPa, Liquid	0.1145
366.45 K, 4022 kPa, Liquid	0.1126
366.45 K, 4023 kPa, Liquid	0.1108
366.45 K, 4024 kPa, Liquid	0.1089
366.45 K, 4025 kPa, Liquid	0.107
366.45 K, 4026 kPa, Liquid	0.1052
366.45 K, 4027 kPa, Liquid	0.1035
366.45 K, 4028 kPa, Liquid	0.1018
366.45 K, 4029 kPa, Liquid	0.1003
366.45 K, 4030 kPa, Liquid	0.09876
366.45 K, 4031 kPa, Liquid	0.09718
366.45 K, 4032 kPa, Liquid	0.09578
366.45 K, 4033 kPa, Liquid	0.09438
366.45 K, 4034 kPa, Liquid	0.0931
366.45 K, 4035 kPa, Liquid	0.09185
366.45 K, 4036 kPa, Liquid	0.09064
366.45 K, 4037 kPa, Liquid	0.08946
366.45 K, 4038 kPa, Liquid	0.0883
366.45 K, 4039 kPa, Liquid	0.08718
366.45 K, 4040 kPa, Liquid	0.08608
366.45 K, 4045 kPa, Liquid	0.08137
366.45 K, 4050 kPa, Liquid	0.0775
366.45 K, 4055 kPa, Liquid	0.07438
366.45 K, 4057 kPa, Liquid	0.07324
366.45 K, 4065 kPa, Liquid	0.06968
366.45 K, 4070 kPa, Liquid	0.06809
366.45 K, 4075 kPa, Liquid	0.0668
366.45 K, 4080 kPa, Liquid	0.0658
366.45 K, 4085 kPa, Liquid	0.06508
366.45 K, 4090 kPa, Liquid	0.06449
366.45 K, 4095 kPa, Liquid	0.06445
366.45 K, 4100 kPa, Liquid	0.06429
366.45 K, 4105 kPa, Liquid	0.06425
366.45 K, 4110 kPa, Liquid	0.06421
366.45 K, 4115 kPa, Liquid	0.06418
366.45 K, 4120 kPa, Liquid	0.06414
366.45 K, 4125 kPa, Liquid	0.0641
366.45 K, 4130 kPa, Liquid	0.06408
366.45 K, 4140 kPa, Liquid	0.06408
366.45 K, 4150 kPa, Liquid	0.06404
366.45 K, 4160 kPa, Liquid	0.064
366.45 K, 4170 kPa, Liquid	0.06396
366.45 K, 4180 kPa, Liquid	0.06392
366.45 K, 4190 kPa, Liquid	0.06394
366.45 K, 4200 kPa, Liquid	0.06392
366.45 K, 4210 kPa, Liquid	0.06392
366.45 K, 4220 kPa, Liquid	0.06388
366.45 K, 4230 kPa, Liquid	0.06388
366.45 K, 4240 kPa, Liquid	0.06387
366.45 K, 4250 kPa, Liquid	0.06387
366.45 K, 4260 kPa, Liquid	0.0639
366.45 K, 4270 kPa, Liquid	0.0639
366.45 K, 4280 kPa, Liquid	0.0639
366.45 K, 4290 kPa, Liquid	0.0639
366.45 K, 4300 kPa, Liquid	0.06392
366.45 K, 4330 kPa, Liquid	0.06396
366.45 K, 4400 kPa, Liquid	0.0641
366.45 K, 4410 kPa, Liquid	0.06416
366.45 K, 4477 kPa, Liquid	0.06435
366.45 K, 4491 kPa, Liquid	0.06439
367.32 K, 4010 kPa, Gas	0.04654
367.32 K, 4012 kPa, Gas	0.04665
367.32 K, 4014 kPa, Gas	0.04687
367.32 K, 4025 kPa, Gas	0.04792
367.32 K, 4026 kPa, Gas	0.05076
367.32 K, 4027 kPa, Gas	0.05394
367.32 K, 4028 kPa, Gas	0.05642
367.32 K, 4029 kPa, Gas	0.05957
367.32 K, 4030 kPa, Gas	0.06288
367.32 K, 4031 kPa, Gas	0.06655
367.32 K, 4032 kPa, Gas	0.06997
367.32 K, 4033 kPa, Gas	0.07414
367.32 K, 4034 kPa, Gas	0.07824
367.32 K, 4035 kPa, Gas	0.08231
367.32 K, 4036 kPa, Gas	0.08718
367.32 K, 4037 kPa, Gas	0.09169
367.32 K, 4038 kPa, Gas	0.09661
367.32 K, 4039 kPa, Gas	0.1018
367.32 K, 4040 kPa, Gas	0.1068
367.32 K, 4041 kPa, Gas	0.1118
367.32 K, 4042 kPa, Gas	0.1171
367.32 K, 4043 kPa, Gas	0.1226
367.32 K, 4044 kPa, Gas	0.1282
367.32 K, 4045 kPa, Gas	0.134
367.32 K, 4046 kPa, Gas	0.1397
367.32 K, 4047 kPa, Gas	0.145
367.32 K, 4048 kPa, Gas	0.1514
367.32 K, 4050 kPa, Gas	0.1645
367.32 K, 4051 kPa, Gas	0.1714
367.32 K, 4052 kPa, Gas	0.1781
367.32 K, 4053 kPa, Gas	0.1856
367.32 K, 4054 kPa, Gas	0.1925
367.32 K, 4055 kPa, Gas	0.1998
367.32 K, 4056 kPa, Gas	0.2078
367.32 K, 4057 kPa, Gas	0.2153
367.32 K, 4058 kPa, Gas	0.2233
367.32 K, 4059 kPa, Gas	0.2315
367.32 K, 4060 kPa, Liquid	0.2315
367.32 K, 4061 kPa, Liquid	0.2164
367.32 K, 4062 kPa, Liquid	0.2079
367.32 K, 4063 kPa, Liquid	0.1998
367.32 K, 4064 kPa, Liquid	0.1925
367.32 K, 4065 kPa, Liquid	0.1857
